Results published in patent publication US9084424B2, “N-benzyl heterocyclic carboxamides” (BAYER INTELLECTUAL PROPERTY GMBH, priority 2010, dated 2015).

Key:
[1] = log P by HPLC on reversed-phase column (EEC Directive 79/831 Annex V.A8); type: physicochemical; conditions: 0.1% aqueous formic acid and acetonitrile, linear gradient 10% to 90% acetonitrile
Description: In table 1, the log P values were determined in accordance with EEC Directive 79/831 Annex V.A8 by HPLC (High Performance Liquid Chromatography) on a reversed-phase column (C 18), using the method described below: Temperature: 40° C.; Mobile phases: 0.1% aqueous formic acid and acetonitrile; linear gradient from 10% acetonitrile to 90% acetonitrile. Calibration was carried out using unbranched alkan-2-ones (comprising 3 to 16 carbon atoms) with known log P values (determination of the log P values by the retention times using linear interpolation between two successive alkanones). lambda-max-values were determined using UV-spectra from 200 nm to 400 nm and the peak values of the chromatographic signals.

Alternaria solani = test: In vivo preventive test on Alternaria solani (tomato); conditions: preventive spray, 500 ppm of active ingredient, evaluated 7 days after inoculation
Description: In Vivo Preventive Test on Alternaria Solani (Tomato)
(§1) Solvent: 49 parts by weight of N,N-dimethylformamide
(§2) Emulsifier: 1 part by weight of alkylarylpolyglycolether
(§3) To produce a suitable preparation of active compound, 1 part by weight of active compound is mixed with the stated amounts of solvent and emulsifier, and the concentrate is diluted with water to the desired concentration.
To test for preventive activity, young plants are sprayed with the preparation of active compound at the stated rate of application. One day after this treatment, the plants are inoculated with an aqueous spore suspension of Alternaria solani. The plants remain for one day in an incubation cabinet at approximately 22° C. and a relative atmospheric humidity of 100%. Then the plants are placed in an incubation cabinet at approximately 20° C. and a relative atmospheric humidity of 96%.
The test is evaluated 7 days after the inoculation. 0% means an efficacy which corresponds to that of the untreated control while an efficacy of 100% means that no disease is observed.

Pyrenophora teres = test: In vivo preventive test on Pyrenophora teres (barley); conditions: preventive spray, 500 ppm of active ingredient, evaluated 7-9 days after inoculation
Description: In Vivo Preventive Test on Pyrenophora teres (Barley)
Solvent: 49 parts by weight of N,N-dimethylacetamid
Emulsifier: 1 part by weight of alkylaryl polyglycol ether
as §3
To test for preventive activity, young plants are sprayed with the preparation of active compound at the stated rate of application. One day after this treatment, the plants are inoculated with an aqueous spore suspension of Pyrenophora teres. The plants remain for 48 hours in an incubation cabinet at 22° C. and a relative atmospheric humidity of 100%. Then the plants are placed in a greenhouse at a temperature of approximately 20° C. and a relative atmospheric humidity of approximately 80%.
The test is evaluated 7-9 days after the inoculation. 0% means an efficacy which corresponds to that of the untreated control while an efficacy of 100% means that no disease is observed.

Sphaerotheca fuliginea = test: In vivo preventive test on Sphaerotheca fuliginea (cucumber); conditions: preventive spray, 500 ppm of active ingredient, evaluated 7 days after inoculation
Description: In Vivo Preventive Test on Sphaerotheca fuliginea (Cucumber)
as §1, §2, §3
To test for preventive activity, young plants are sprayed with the preparation of active compound at the stated rate of application. After the spray coating has dried on, the plants are inoculated with an aqueous spore suspension of Sphaerotheca fuliginea. The plants are then placed in a greenhouse at approximately 23° C. and a relative atmospheric humidity of approximately 70%.
The test is evaluated 7 days after the inoculation. 0% means an efficacy which corresponds to that of the untreated control, while an efficacy of 100% means that no disease is observed.

[2] = HPLC, reversed-phase C 18, 40° C.
[3] = HPLC on reversed-phase column (C 18), 40° C.

logP [1, 2]	logP [1, 3]	SMILES	Efficacy (Alternaria solani) [%]	Efficacy (Pyrenophora teres) [%]	Efficacy (Sphaerotheca fuliginea) [%]
3.21		Cn1nc(C(F)F)c(C(=O)NC(c2ccccc2Cl)C(F)(F)F)c1F (racemic) [Example 23]	89		
2.84		CC(c1ccccc1Cl)N(C)C(=O)c1c(C(F)F)nn(C)c1Cl (racemic) [Example 27]	80	100	
2.68		CC(c1ccccc1Cl)N(C)C(=O)c1c(C(F)F)nn(C)c1F (racemic) [Example 28]		100	85
	3.76	CC(c1ccc(Oc2ccccc2)cc1)N(C)C(=O)c1c(C(F)F)nn(C)c1Cl (racemic) [Example 153]	90	80	
	3.62	CC(NC(=O)c1c(C(F)F)nn(C)c1Cl)c1ccc(-c2ccccc2)cc1 (racemic) [Example 167]	95	90	
3.36		C=CCN(Cc1ccccc1CC)C(=O)c1c(C(F)F)nn(C)c1F [Example 16]	80	100	
3.15		Cn1nc(C(F)F)c(C(=O)NC(C)(C)c2ccccc2Cl)c1Cl [Example 22]			80
3.89		Cn1nc(C(F)F)c(C(=O)NC(c2ccc(Cl)cc2Cl)C(F)(F)F)c1Cl (stereo not drawn) [Example 32]			95
3.89		Cn1nc(C(F)F)c(C(=O)NC(C)(C)c2ccc(Cl)cc2Cl)c1Cl [Example 35]			86
4.19		Cn1nc(C(F)F)c(C(=O)NCc2ccc(Cl)cc2Cl)c1F [Example 37]	94		
3.89		Cn1nc(C(F)F)c(C(=O)NC2(c3ccc(Cl)cc3Cl)CC2)c1Cl [Example 41]	80		
3.81		CON(C(=O)c1c(C(F)F)nn(C)c1Cl)C(C)c1ccc(Cl)cc1Cl (stereo not drawn) [Example 46]	100	100	
3.89		Cn1nc(C(F)F)c(C(=O)NC(C)(C)c2cc(Cl)ccc2Cl)c1Cl [Example 49]			94
4.19		Cn1nc(C(F)F)c(C(=O)NC2(c3cc(Cl)ccc3Cl)CC2)c1F [Example 51]	94	80	
3.89		Cn1nc(C(F)F)c(C(=O)NC(C)(C)c2cc(Cl)ccc2Cl)c1F [Example 52]			80
4.19		Cn1nc(C(F)F)c(C(=O)NCc2cc(Cl)ccc2Cl)c1F [Example 54]	89		
2.76		Cn1nc(C(F)F)c(C(=O)NCc2ccccc2C(F)(F)F)c1F [Example 81]	90		
2.96		Cn1nc(C(F)F)c(C(=O)NCc2ccccc2C(F)(F)F)c1Cl [Example 83]	90		
3.55		CC(NC(=S)c1c(C(F)F)nn(C)c1Cl)c1ccccc1C(F)(F)F (stereo not drawn) [Example 85]	95	100	
2.68		Cn1nc(C(F)F)c(C(=O)N(CC#N)Cc2c(Cl)cccc2C(F)(F)F)c1F [Example 88]	80		
2.93		CN(Cc1c(Cl)cccc1C(F)(F)F)C(=O)c1c(C(F)F)nn(C)c1F [Example 89]	95	100	
	2.71	CN(Cc1ccccc1Br)C(=O)c1c(C(F)F)nn(C)c1F [Example 105]	95	94	
	3.11	Cn1nc(C(F)F)c(C(=O)NCc2ccccc2SC(F)(F)F)c1F [Example 107]	80	100	
	3.25	Cn1nc(C(F)F)c(C(=O)NCc2ccc3c(c2)CCCC3)c1F [Example 110]	94	80	

logP [1, 2]	logP [1, 3]	SMILES	Efficacy (Alternaria solani) [%]	Efficacy (Pyrenophora teres) [%]	Efficacy (Sphaerotheca fuliginea) [%]
	3.23	Cn1nc(C(F)F)c(C(=O)NCc2cc(Cl)cc(Cl)c2)c1Cl [Example 113]	90	80	
	3.09	Cn1nc(C(F)F)c(C(=O)NCc2cc(Cl)cc(Cl)c2)c1F [Example 115]	94	90	
	3.72	Cn1nc(C(F)F)c(C(=O)NC2(c3ccc(C(F)(F)F)cc3)CCCC2)c1F [Example 121]	70	94	
	2.55	Cn1nc(C(F)F)c(C(=O)NCc2ccc(Cl)cc2)c1F [Example 127]	90		
	2.73	Cn1nc(C(F)F)c(C(=O)NC2CCc3ccccc32)c1Cl (stereo not drawn) [Example 137]	89		
	2.57	Cn1nc(C(F)F)c(C(=O)NC2CCc3ccccc32)c1F (stereo not drawn) [Example 138]	94		
	3.25	Cn1nc(C(F)F)c(C(=O)NCc2ccccc2Oc2ccccc2)c1F [Example 144]	89		
	3.23	Cn1nc(C(F)F)c(C(=O)NCc2cccc(Oc3ccccc3)c2)c1F [Example 145]	90		
	3.19	Cn1nc(C(F)F)c(C(=O)N(Cc2cccc(Oc3ccccc3)c2)C2COC2)c1Cl [Example 147]	70		
	3.06	Cn1nc(C(F)F)c(C(=O)N(Cc2cccc(Oc3ccccc3)c2)C2COC2)c1F [Example 148]	80	95	
	3.46	CN(Cc1cccc(Oc2ccccc2)c1)C(=O)c1c(C(F)F)nn(C)c1Cl [Example 149]		70	
	3.31	CN(Cc1cccc(Oc2ccccc2)c1)C(=O)c1c(C(F)F)nn(C)c1F [Example 150]	70	100	
	3.23	Cn1nc(C(F)F)c(C(=O)NCc2ccc(Oc3ccccc3)cc2)c1F [Example 152]	89	95	
	3.33	CN(Cc1ccc(Oc2ccccc2)cc1)C(=O)c1c(C(F)F)nn(C)c1F [Example 156]	89	90	
	3.96	CN(Cc1ccc(Oc2ccc(Cl)cc2)cc1)C(=O)c1c(C(F)F)nn(C)c1Cl [Example 157]		90	
	3.81	CN(Cc1ccc(Oc2ccc(Cl)cc2)cc1)C(=O)c1c(C(F)F)nn(C)c1F [Example 158]	95	100	
	3.23	Cn1nc(C(F)F)c(C(=O)NCc2ccc(OCc3ccccc3)cc2)c1F [Example 161]	94	90	
	3.19	Cn1nc(C(F)F)c(C(=O)NCc2cccc(-c3ccccc3)c2)c1F [Example 166]	78	80	
	3.21	Cn1nc(C(F)F)c(C(=O)NCc2ccc(-c3ccccc3)cc2)c1F [Example 170]	94	95	
	1.84	CN(Cc1cc(Cl)ccn1)C(=O)c1c(C(F)F)nn(C)c1F [Example 174]		75	
	2.76	Cn1nc(C(F)F)c(C(=O)NCc2ncc(C(F)(F)F)cc2Cl)c1F [Example 176]	70		
	2.88	CON(Cc1ncc(Cl)cc1Cl)C(=O)c1c(C(F)F)nn(C)c1Cl [Example 182]		95	
	4.67	CC(c1ncc(Cl)cc1Cl)N(C(=O)c1c(C(F)F)nn(C)c1Cl)C1CCCC1 (stereo not drawn) [Example 188]		95	

SMILES	logP [1, 2]	logP [1, 3]	Efficacy (Alternaria solani) [%]	Efficacy (Pyrenophora teres) [%]	Efficacy (Sphaerotheca fuliginea) [%]
CC(NC(=O)c1c(C(F)F)nn(C)c1Cl)c1ccccc1 (racemic) [Example 1]	2.49		95	95	
CC(NC(=O)c1c(C(F)F)nn(C)c1F)c1ccccc1 (racemic) [Example 2]	2.33		93	94	
